The record followed here is patent publication US9108936B2, “Substituted 4-aminobenzamides as KCNQ2/3 modulators” (GRUENENTHAL GMBH, priority 2012, dated 2015).

One experiment addresses T1, KCNQ2/3 channels (Homo sapiens, UniProt O43525+O43526).
T1 construct: expressed in transfected cells; host or cells: CHO-K1
Briefly: Fluorescence assay using a voltage sensitive dye (fluorimetry). In kind it is cell-based. As to conditions: CHO-K1 cells expressing KCNQ2/3; for Emax: plateau effect relative to saturated Retigabine (50 μM), read-out: Fluorimetry % efficacy (retigabine = 100%); for pEC50: voltage-sensitive dye, KCl depolarization, read-out: Fluorimetry EC50/IC50. An excerpt: Method I. Fluorescence Assay Using a Voltage Sensitive Dye (Fluorimetry)
The modulation of the KCNQ opening state (and consequently the voltage potential of a cell) by test compounds such as compounds according to the present invention results in an increased or reduced amount of a voltage-sensitive dye in the cytoplasm of the cells tested. These voltage-sensitive dyes are fluorescent dyes and, therefore, are forming the link between cell potential influenced by KCNQ modulation and fluorescence intensity. A KCNQ agonist leads to an opening of the channel, potassium and dye efflux, a following hyperpolarization and a reduction of the inner fluorescence intensity in a kinetic protocol. If applying an ion jump by KCl depolarization, KCNQ agonists increase the ΔF/F value. An antagonist performs vice versa, respectively.
The ‘fluorimetry EC50’ is the half maximum effective concentration (EC50), where the concentration of a drug/compound induces a response halfway between the baseline and maximum plateau effect. In other words, said value represents the concentration of a compound, where 50% of its maximal effect in the fluorimetric assay is observed if the substance concentration is graphed against the corresponding ΔF/F values (for which the calculation method is described below). Therefore, ‘fluorimetry EC50’ is a measure for the compound potency. The compound efficacy is mirrored by ‘fluorimetry % efficacy’ (‘% Efficacy’) and refers to the maximum response achievable by the test compound, i.e. the plateau effect. This drug's plateau effect is related to the plateau effect, which can be achieved by applying a saturated concentration of a reference compound, e.g. Retigabine (50 μM), in independent wells of the same experimental plate or series. A compound showing 100% efficacy is as efficacious as the reference compound (Retigabine) with a saturated concentration.
[…] CHO-K1 cells expressing KCNQ2/3 channels are cultivated adherently at 37° C., 5% CO2 and 95% humidity in cell culture bottles (e.g. 80 cm^2 TC flasks, Nunc) with DMEM-high glucose (Sigma Aldrich, D7777) including 10% FCS (PAN Biotech, e.g. 3302-P270521) or alternatively MEM Alpha Medium (1×, liquid, Invitrogen, #22571), 10% fetal calf serum (FCS) (Invitrogen, #10270-106, heat-inactivated) and the necessary selection antibiotics.
Before being sown out for the measurements, the cells are washed with 1× DPBS buffer Ca^2+/Mg^2+-free (e.g. Invitrogen, #14190-094) and detached from the bottom of the culture vessel by using Accutase (PAA Laboratories, #L11-007) (incubation with Accutase for 15 min at 37° C.). The cell number is determined using a CASY™ cell counter (TCC, Schärfe System). Depending on the optimal density for each individual cell line, 20,000-30,000 cells/well/100 μl are seeded onto 96-well Corning™ CellBIND™ assay plates (Flat Clear Bottom Black Polystyrene Microplates, #3340). Freshly seeded cells are then left to settle for one hour at room temperature, followed by incubation for 24 hours at 37° C., 5% CO2 and 95% humidity.
The voltage-sensitive fluorescent dye from the Membrane Potential Assay Kit (Red™ Bulk format part R8123 for FLIPR, MDS Analytical Technologies™) is prepared by dissolving the contents of one vessel Membrane Potential Assay Kit Red Component A in 200 ml of extracellular buffer (ES buffer, 120 mM NaCl, 1 mM KCl, 10 mM HEPES, 2 mM CaCl2, 2 mM MgCl2, 10 mM glucose; pH 7.4). After removal of the nutrient medium, the cells are washed once with 200 μl of ES buffer, then loaded for 45 min at room temperature in 100 μl of dye solution in the dark.
Fluorescence measurements are carried out in a BMG Labtech FLUOstar™, BMG Labtech NOVOstar™ or BMG Labtech POLARstar™ instrument (525 nm excitation, 560 nm emission, Bottom Read mode). […]

In another experiment the test system is Male Sprague-Dawley rats. Nature of the experiment: Low-intensity tail flick test (rat). As to conditions: for ED50: po, peroral, at time of maximum efficacy. In kind it is in vivo. As to the method:
Method II. Low-Intensity Tail Flick Test (Rat)
In the low-intensity tail flick test, the determination of the antinociceptive effect of the compounds according to the invention towards an acute noxious thermal stimulus is carried out by measuring the withdrawal reflex of the rat tail (tail flick) in response to a radiant heat beam (analgesia meter; model 2011 of the company Rhema Labortechnik, Hofheim, Germany) according to the method described by D'Amour and Smith (J. Pharm. Exp. Ther. 72, 74 79 (1941). To this end, the rats were placed in a plexiglas restrainer, and a low-intensity radiant heat beam (48° C.) was focused onto the dorsal surface of the tail root. The stimulus intensity was adjusted to result in a mean pre-drug control withdrawal latency of about 7 s, thus also allowing a supraspinal modulation of the spinally mediated acute nociceptive reflex. A cutoff time of 30 s was applied to avoid tissue damage. Male Sprague-Dawley rats (Janvier, Le Genest St. Isle, Frankreich) with weights of 200-250 g were used. 10 rats were used per group. Before administration of a compound according to the invention, the animals were pre-tested twice in the course of five minutes and the mean of these measurements was calculated as the pre-test mean. The antinociceptive effect was determined at 20, 40 and 60 min after peroral compound administration. The antinociceptive effect was calculated based on the increase in the tail withdrawal latency according to the following formula and is expressed as percentage of the maximum possible effect (MPE [%]): MPE=[(T1−T0)/(T2−T0)]*100
In this, T0 is the control latency time before and T1 the latency time after administration of the compound, T2 is the cutoff time and MPE is the maximum possible effect. Employing variant analysis (repeated measures ANOVA) allowed testing of statistically significant differences between the compounds according to the invention and the vehicle group. The significance level was set to p≦0.05. To determine the dose dependency, the particular compound according to the invention was administered in 3-5 logarithmically increasing doses, including a threshold dose and a maximum effective dose, and the ED50 values were determined with the aid of regression analysis. The ED50 calculation was performed at the time of maximum efficacy (usually 20 min after administration of the compounds).
(In hot-plate and tail-flick tests a longer latency is read as antinociception.)

pEC50: −log10 of the molar value.

Usually ED50 stands for the dose that gives a 50% effect, or the effect in half of the subjects. The low end stands for greater potency, the high end for weaker potency. For `Cc1cc(N2CCOCC2)cc(C(C)C)c1C(=O)NCc1ccc(Cl)cc1` [Example 14, N-[(4-Chlorophenyl)-methyl]-2-isopropyl-6-methyl-4-morpholin-4-yl-benzamide], at KCNQ2/3 channels, the Emax amounted to 175% and the pEC50 was 6.87. Further, in the experiment on Male Sprague-Dawley rats (dose 10 mg/kg), the “Low intensity tail flick, rat, peroral, MPE (dose)” value was 92%. This molecule came in with an ED50 with Male Sprague-Dawley rats of 3.6 mg/kg.

Take `Cc1cc(N2CCOCC2)cc(C(C)C)c1C(=O)NCc1ccc(F)cc1` [Example 17, N-[(4-Fluorophenyl)methyl]-2-isopropyl-6-methyl-4-morpholin-4-yl-benzamide]: on KCNQ2/3 channels, the Emax is 179% and the pEC50 is 6.18. The “Low intensity tail flick, rat, peroral, MPE (dose)” value in the experiment with Male Sprague-Dawley rats (dose 14.7 mg/kg) stood at 100%. This molecule also gave a median effective dose (ED50) in the experiment on Male Sprague-Dawley rats of 2.5 mg/kg.

For `Cc1cc(N2CCOCC2)cc(C2CC2)c1C(=O)NCC[C@H](O)C(C)(C)C` [Example 29, 2-Cyclopropyl-N-[(3S)-3-hydroxy-4,4-dimethyl-pentyl]-6-methyl-4-morpholin-4-yl-benzamide], on KCNQ2/3 channels, the Emax is 195% and the pEC50 is 5.74.

For `Cc1cc(N2CCOCC2)cc(C(C)C)c1C(=O)NCC[C@@H](O)C(C)(C)C` [Example 30, N-[(3R)-3-Hydroxy-4,4-dimethyl-pentyl]-2-isopropyl-6-methyl-4-morpholin-4-yl-benzamide], at KCNQ2/3 channels, the Emax stood at 212% and the pEC50 is 5.51.

`Cc1cc(N2CCOCC2)cc(C(C)C)c1C(=O)NCC[C@H](O)C(C)(C)C` [Example 31, N-[(3S)-3-Hydroxy-4,4-dimethyl-pentyl]-2-isopropyl-6-methyl-4-morpholin-4-yl-benzamide]: at KCNQ2/3 channels, the Emax came out at 230% and the pEC50 was 6.38.

On to `Cc1cc(N2CCOCC2)cc(C2CC2)c1C(=O)NCC(O)CC(C)(C)C` (stereo not shown) [Example 32, 2-Cyclopropyl-N-(2-hydroxy-4,4-dimethyl-pentyl)-6-methyl-4-morpholin-4-yl-benzamide], for which, at KCNQ2/3 channels, the Emax was 159% and the pEC50 is 5.42.

Turning to `Cc1cc(N2CCOCC2)cc(C(C)C)c1C(=O)NCC(O)CC(C)(C)C` (stereo not shown) [Example 33, N-(2-Hydroxy-4,4-dimethyl-pentyl)-2-isopropyl-6-methyl-4-morpholin-4-yl-benzamide], on KCNQ2/3 channels, the Emax was found to be 216% and the pEC50 was 5.86.

Consider `Cc1cc(N2CCOCC2)cc(C(C)C)c1C(=O)NCc1ccc(Cl)cn1` [Example 34, N-[(5-Chloro-pyridin-2-yl)-methyl]-2-isopropyl-6-methyl-4-morpholin-4-yl-benzamide], for which, on KCNQ2/3 channels, the Emax was 156% and the pEC50 was 5.44.

`Cc1cc(N2CCOCC2)cc(C(C)C)c1C(=O)NCc1ccc(C(F)(F)F)cn1` [Example 35, 2-Isopropyl-6-methyl-4-morpholin-4-yl-N-[[5-(trifluoromethyl)-pyridin-2-yl]-methyl]-benzamide]: at KCNQ2/3 channels, the Emax came out at 134% and the pEC50 was 5.51.

`Cc1cc(N2CCOCC2)cc(C2CC2)c1C(=O)NCc1ccc(C(F)(F)F)cn1` [Example 36, 2-Cyclopropyl-6-methyl-4-morpholin-4-yl-N-[[5-(trifluoromethyl)-pyridin-2-yl]-methyl]-benzamide]: on KCNQ2/3 channels, the Emax was determined as 89% and the pEC50 is 5.28.

On to `Cc1cc(N2CCOCC2)cc(C2CCOC2)c1C(=O)NCc1ccc(Cl)cc1` (stereo not shown) [Example 37, N-[(4-Chlorophenyl)-methyl]-2-methyl-4-morpholin-4-yl-6-tetrahydro-furan-3-yl-benzamide], for which, on KCNQ2/3 channels, the Emax amounted to 166% and the pEC50 was 5.77.

On to `Cc1cc(N2CCOCC2)cc(N2CC[C@@H](F)C2)c1C(=O)NCc1ccc(Cl)cc1` [Example 38, N-[(4-Chlorophenyl)-methyl]-2-[(3R)-3-fluoro-pyrrolidin-1-yl]-6-methyl-4-morpholin-4-yl-benzamide], for which, on KCNQ2/3 channels, the Emax was determined as 167% and the pEC50 was 6.13.

For the molecule `CC(C)c1cc(N2CCOCC2)cc(F)c1C(=O)NCc1ccc(Cl)cc1` [Example 39, N-[(4-Chlorophenyl)-methyl]-2-fluoro-6-isopropyl-4-morpholin-4-yl-benzamide], at KCNQ2/3 channels, the Emax stood at 196% and the pEC50 was 6.66.

Consider `COc1cc(N2CCOCC2)cc(C(C)C)c1C(=O)NCc1ccc(Cl)cc1` [Example 40, N-[(4-Chlorophenyl)-methyl]-2-isopropyl-6-methoxy-4-morpholin-4-yl-benzamide], for which, on KCNQ2/3 channels, the Emax was 196% and the pEC50 was 6.78.

With `CCc1cc(N2CCOCC2)cc(CC)c1C(=O)NCc1ccc(Cl)cc1` [Example 41, N-[(4-Chlorophenyl)-methyl]-2,6-diethyl-4-morpholin-4-yl-benzamide], on KCNQ2/3 channels, the Emax is 181% and the pEC50 is 6.30.
